Measured values taken from patent publication US11065304B2, “Peptide pharmaceuticals for insulin resistance” (MEDERIS DIABETES, LLC, priority 2012, dated 2021).

Assays:
[1] = in water; cited from earlier work
[2] = test system: db/db mice; test: In vivo assay in db/db mice (blood glucose, body weight, food consumption); settings: for db/db mice - Mean Blood Glucose, 10 hr: 10 hr after first dose; for db/db mice - Mean Blood Glucose, 24 hr: 24 hr after first dose; for db/db mice - Mean Blood Glucose, 48 hr: 48 hr after first dose
Protocol: The 60 female db/db B6BKS (D) Leprdb/J (strain 000697) mice for this study were approximately 8 to 9 weeks old at arrival (Jackson Laboratory, Bar Harbor, Me.). […] One group of 8 female mice served as the vehicle control and received the vehicle, 0.2% BSA in saline, pH 7.4. One additional group of 8 female mice received the positive control article, liraglutide, at a dose level of 50 nmoles/kg. The test articles, vehicle, and positive control article were administered on Day 1, at approximately 0, 7, and 24 hours during the study via subcutaneous injection at a dose volume of 6 mL/kg.
Clinical observations were conducted at receipt, prior to randomization, and daily from Days 1 to 5. Body weights were measured and recorded at receipt, prior to randomization, and daily from Days 1 to 5. Food consumption was measured and recorded daily from Days 1 to 5. Blood samples for glucose analysis were collected pretest (Day −3) and at 0, 1, 2, 4, 8, 10, 24, 48, 72, and 96 hours following the first dose on Day 1. At study termination all animals were euthanized and the carcasses were discarded without further evaluation.

[3] = target: T1, glucagon R (Homo sapiens, UniProt P47871); test: DiscoveRx LeadHunter cellular assay, cAMP stimulation, glucagon receptor; format: cell-based
T1 construct: host or cells: CHO cells
Protocol: (§1) § means superagonist A further series of cellular assays were carried out using standard cellular assays (DiscoveRx, LeadHunter assays) using readout of cAMP stimulation or arrestin activation. Compounds were weighed precisely in an amount of approximately 1 mg and shipped to DiscoveRx for dilution and assay.

[4] = target: GLP-1 R (Homo sapiens, UniProt P43220); test: DiscoveRx LeadHunter cellular assay, cAMP stimulation, GLP-1 receptor; format: cell-based
Protocol: as §1

T1 sequence (P47871 26-477): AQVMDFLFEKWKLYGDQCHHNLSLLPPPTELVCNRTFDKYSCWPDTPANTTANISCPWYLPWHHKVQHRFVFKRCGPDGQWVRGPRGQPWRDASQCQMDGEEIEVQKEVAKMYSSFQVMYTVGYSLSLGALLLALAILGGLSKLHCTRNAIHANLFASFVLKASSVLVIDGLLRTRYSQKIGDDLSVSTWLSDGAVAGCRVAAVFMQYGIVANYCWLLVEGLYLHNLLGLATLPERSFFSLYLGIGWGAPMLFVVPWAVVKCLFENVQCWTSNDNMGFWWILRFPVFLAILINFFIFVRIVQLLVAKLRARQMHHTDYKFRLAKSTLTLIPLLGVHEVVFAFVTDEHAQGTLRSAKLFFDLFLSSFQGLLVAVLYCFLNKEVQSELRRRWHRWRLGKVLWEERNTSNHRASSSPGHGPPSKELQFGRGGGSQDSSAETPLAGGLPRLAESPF
Sequence of GLP-1 R (P43220 24-463): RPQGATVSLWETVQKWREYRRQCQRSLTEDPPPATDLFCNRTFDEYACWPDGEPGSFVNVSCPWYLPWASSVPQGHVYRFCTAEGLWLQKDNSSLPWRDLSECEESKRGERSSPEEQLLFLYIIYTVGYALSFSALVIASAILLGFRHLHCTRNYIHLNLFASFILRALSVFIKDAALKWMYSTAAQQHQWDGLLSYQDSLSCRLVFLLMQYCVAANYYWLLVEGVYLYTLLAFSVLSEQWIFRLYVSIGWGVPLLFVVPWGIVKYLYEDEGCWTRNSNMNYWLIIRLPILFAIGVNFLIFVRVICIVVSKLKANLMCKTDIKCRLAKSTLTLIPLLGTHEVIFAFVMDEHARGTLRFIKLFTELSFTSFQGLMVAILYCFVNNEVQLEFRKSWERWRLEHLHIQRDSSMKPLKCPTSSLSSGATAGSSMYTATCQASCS

Row | Compound | CMC (critical micelle concentration) [1] [mM] | db/db mice - Mean Blood Glucose, 0 hr ([2]; 250 nmole/kg s.c.) [mg/dL] | db/db mice - Mean Blood Glucose, 10 hr ([2]; 250 nmole/kg s.c.) [mg/dL] | db/db mice - Mean Blood Glucose, 24 hr ([2]; 250 nmole/kg s.c.) [mg/dL] | db/db mice - Mean Blood Glucose, 48 hr ([2]; 250 nmole/kg s.c.) [mg/dL] | EC50 [3] [pM] | other results
1 | CCCCCCCCCCCCCCO[C@@H]1O[C@H](CO)[C@@H](O[C@@H]2O[C@@H](CO)[C@H](O)[C@@H](O)[C@@H]2O)[C@H](O)[C@H]1O (stereo in doubt) [Tetradecyl maltoside] | 0.01 |  |  |  |  |  | 
2 | CCCCCCCCCCCCCO[C@@H]1O[C@H](CO)[C@@H](OC2OC(CO)C(O)C(O)C2O)[C@H](O)[C@H]1O (stereo in doubt) [Tridecyl maltoside] | 0.03 |  |  |  |  |  | 
3 | CCCCCCCCCCO[C@@H]1O[C@H](CO)[C@@H](O[C@H]2O[C@H](CO)[C@@H](O)[C@H](O)[C@H]2O)[C@H](O)[C@H]1O [Decyl maltoside] | 1.8 |  |  |  |  |  | 
4 | CCCCCCCCCCCCO[C@@H]1O[C@H](CO)[C@@H](O[C@H]2O[C@H](CO)[C@@H](O)[C@H](O)[C@H]2O)[C@H](O)[C@H]1O [Dodecyl-β-D-maltoside] | 0.17 |  |  |  |  |  | 
5 | CCCCCCCCO[C@@H]1O[C@H](C(=O)NCCCC[C@H](NC(=O)[C@@H](NC(=O)[C@H](Cc2ccccc2)NC(=O)[C@H](CCC(=O)O)NC(=O)[C@@H]2CCCCNC(=O)CC[C@H](NC(=O)[C@H](CC(=O)O)NC(=O)[C@H](CC(C)C)NC(=O)[C@H](Cc3ccc(O)cc3)NC(=O)[C@H](CCCCN)NC(=O)[C@H](CO)NC(=O)[C@H](Cc3ccc(O)cc3)NC(=O)[C@H](CC(=O)O)NC(=O)[C@H](CO)NC(=O)[C@@H](NC(=O)[C@H](Cc3ccccc3)NC(=O)[C@@H](NC(=O)CNC(=O)[C@H](CCC(N)=O)NC(=O)C(C)(C)NC(=O)[C@@H](N)Cc3c[nH]cn3)[C@@H](C)O)[C@@H](C)O)C(=O)N[C@@H](CCC(N)=O)C(=O)N[C@@H](C)C(=O)N[C@@H](C)C(=O)N2)[C@@H](C)CC)C(=O)N[C@@H](Cc2c[nH]c3ccccc23)C(=O)N[C@@H](CC(C)C)C(=O)N[C@@H](CC(C)C)C(=O)N[C@@H](CCC(N)=O)C(=O)N[C@H](C(N)=O)[C@@H](C)O)[C@@H](O)[C@H](O)[C@H]1O [EU-A992, His1-Aib2-Gln3-Gly4-Thr5-Phe6-Thr7-Ser8-Asp9-Tyr10-Ser11-Lys12-Tyr13-Leu14-Asp15-Glu*16-Gln17 Ala18-Ala19-Lys*20-Glu21-Phe22-Ile23-Lys(N-omega(1-octylbeta-D-glucuronyl))24-Trp25-Leu26-Leu27-Gln28-Thr29-NH2] |  | 405 | 104 | 112 | 130 | 19 | 
6 | CCCCCCCCCCCCO[C@@H]1O[C@H](CO[C@H]2O[C@H](C(=O)NCCCC[C@H](NC(=O)[C@@H](NC(=O)[C@H](Cc3ccccc3)NC(=O)[C@H](CCC(=O)O)NC(=O)[C@@H]3CCCCNC(=O)CC[C@H](NC(=O)[C@H](CC(=O)O)NC(=O)[C@H](CC(C)C)NC(=O)[C@H](Cc4ccc(O)cc4)NC(=O)[C@H](CCCCN)NC(=O)[C@H](CO)NC(=O)[C@H](Cc4ccc(O)cc4)NC(=O)[C@H](CC(=O)O)NC(=O)[C@H](CO)NC(=O)[C@@H](NC(=O)[C@H](Cc4ccccc4)NC(=O)[C@@H](NC(=O)CNC(=O)[C@H](CCC(N)=O)NC(=O)C(C)(C)NC(=O)[C@@H](N)Cc4c[nH]cn4)[C@@H](C)O)[C@@H](C)O)C(=O)N[C@@H](CCC(N)=O)C(=O)N[C@@H](C)C(=O)N[C@@H](C)C(=O)N3)[C@@H](C)CC)C(=O)N[C@@H](Cc3c[nH]c4ccccc34)C(=O)N[C@@H](CC(C)C)C(=O)N[C@@H](CC(C)C)C(=O)N[C@@H](CCC(N)=O)C(=O)N[C@H](C(N)=O)[C@@H](C)O)[C@H](O)[C@H](O)[C@H]2O)[C@@H](O)[C@H](O)[C@H]1O [EU-A1023, His1-Aib2-Gln3-Gly4-Thr5-Phe6-Thr7-Ser8-Asp9-Tyr10-Ser11-Lys12-Tyr13-Leu14-Asp15-Glu*16-Gln17 Ala18-Ala19-Lys*20-Glu21-Phe22-Ile23-Lys(N-omega(1-dodecylbeta-D-melibiouronyl))24-Trp25-Leu26-Leu27-Gln28-Thr29-NH2] |  | 508 | 264 | 194 | 375 |  | db/db mice - Mean Blood Glucose, 0 hr ([2]; 50 nmole/kg s.c.): 507 mg/dL; db/db mice - Mean Blood Glucose, 10 hr ([2]; 50 nmole/kg s.c.): 310 mg/dL; db/db mice - Mean Blood Glucose, 24 hr ([2]; 50 nmole/kg s.c.): 355 mg/dL; db/db mice - Mean Blood Glucose, 48 hr ([2]; 50 nmole/kg s.c.): 375 mg/dL
7 | CCCCCCCCCCO[C@@H]1O[C@H](C(=O)NCCCC[C@H](NC(=O)[C@@H](NC(=O)[C@H](Cc2ccccc2)NC(=O)[C@H](CCC(=O)O)NC(=O)[C@@H]2CCCCNC(=O)CC[C@H](NC(=O)[C@H](CC(=O)O)NC(=O)[C@H](CC(C)C)NC(=O)[C@H](Cc3ccc(O)cc3)NC(=O)[C@H](CCCCN)NC(=O)[C@H](CO)NC(=O)[C@H](Cc3ccc(O)cc3)NC(=O)[C@H](CC(=O)O)NC(=O)[C@H](CO)NC(=O)[C@@H](NC(=O)[C@H](Cc3ccccc3)NC(=O)[C@@H](NC(=O)CNC(=O)[C@H](CCC(N)=O)NC(=O)C(C)(C)NC(=O)[C@@H](N)Cc3c[nH]cn3)[C@@H](C)O)[C@@H](C)O)C(=O)N[C@@H](CCC(N)=O)C(=O)N[C@@H](C)C(=O)N[C@@H](C)C(=O)N2)[C@@H](C)CC)C(=O)N[C@@H](Cc2c[nH]c3ccccc23)C(=O)N[C@@H](CC(C)C)C(=O)N[C@@H](CC(C)C)C(=O)N[C@@H](CCC(N)=O)C(=O)N[C@H](C(N)=O)[C@@H](C)O)[C@@H](O)[C@H](O)[C@H]1O [EU-A1167, His1-Aib2-Gln3-Gly4-Thr5-Phe6-Thr7-Ser8-Asp9-Tyr10-Ser11-Lys12-Tyr13-Leu14-Asp15-Glu*16-Gln17 Ala18-Ala19-Lys*20-Glu21-Phe22-Ile23-Lys(N-omega(1-decylbeta-D-glucuronyl))24-Trp25-Leu26-Leu27-Gln28-Thr29-NH2] |  | 379 | 171 | 117 | 113 | 19 | EC50 [4]: 13 pM
8 | CCCCCCCCCCCO[C@@H]1O[C@H](C(=O)NCCCC[C@H](NC(=O)[C@@H](NC(=O)[C@H](Cc2ccccc2)NC(=O)[C@H](CCC(=O)O)NC(=O)[C@@H]2CCCCNC(=O)CC[C@H](NC(=O)[C@H](CC(=O)O)NC(=O)[C@H](CC(C)C)NC(=O)[C@H](Cc3ccc(O)cc3)NC(=O)[C@H](CCCCN)NC(=O)[C@H](CO)NC(=O)[C@H](Cc3ccc(O)cc3)NC(=O)[C@H](CC(=O)O)NC(=O)[C@H](CO)NC(=O)[C@@H](NC(=O)[C@H](Cc3ccccc3)NC(=O)[C@@H](NC(=O)CNC(=O)[C@H](CCC(N)=O)NC(=O)C(C)(C)NC(=O)[C@@H](N)Cc3c[nH]cn3)[C@@H](C)O)[C@@H](C)O)C(=O)N[C@@H](CCC(N)=O)C(=O)N[C@@H](C)C(=O)N[C@@H](C)C(=O)N2)[C@@H](C)CC)C(=O)N[C@@H](Cc2c[nH]c3ccccc23)C(=O)N[C@@H](CC(C)C)C(=O)N[C@@H](CC(C)C)C(=O)N[C@@H](CCC(N)=O)C(=O)N[C@H](C(N)=O)[C@@H](C)O)[C@@H](O)[C@H](O)[C@H]1O [EU-A1168, His1-Aib2-Gln3-Gly4-Thr5-Phe6-Thr7-Ser8-Asp9-Tyr10-Ser11-Lys12-Tyr13-Leu14-Asp15-Glu*16-Gln17 Ala18-Ala19-Lys*20-Glu21-Phe22-Ile23-Lys(N-omega(1-undecylbeta-D-glucuronyl))24-Trp25-Leu26-Leu27-Gln28-Thr29-NH2] |  | 380 | 133 | 169 | 164 | 140 | EC50 [4]: 70 pM
9 | CCCCCCCCO[C@@H]1O[C@H](CO)[C@@H](O[C@H]2O[C@H](CO)[C@@H](O)[C@H](O)[C@H]2O)[C@H](O)[C@H]1O [Octyl maltoside] | 19.5 |  |  |  |  |  | 
10 | Sucrose dodecanoate | 0.3 |  |  |  |  |  | 
